# From ChEMBL document CHEMBL4038274, “Design, synthesis and biological evaluation of multifunctional tacrine-curcumin hybrids as new cholinesterase inhibitors with metal ions-chelating and neuroprotective property” (Bioorg Med Chem, 2017)
# Activity calls are given as the source filed them. No cut-off for these calls is given here.
# Test system: not listed separately
# Test: Metal chelating activity assessed as compound-Fe2+ complex formation at 25 uM after 30 mins by UV-spectrophotometric analysis
# Type: functional
# Settings: not given
row,Structure (SMILES),Activity
1,COc1cc(CC(C(C)=O)C(=O)NCCCCCCNc2c3c(nc4ccccc24)CCCC3)ccc1O (stereo not drawn),Active
2,COc1cc(/C=C(\C(C)=O)C(=O)NCCCCCCNc2c3c(nc4ccccc24)CCCC3)ccc1O,Active
3,CC(=O)CC(=O)NCCCCNc1c2c(nc3ccccc13)CCCC2,Active

# Test system: PC-12
# Test: Cytotoxicity against rat PC12 cells at 0.1 to 10 uM after 24 hrs by MTT assay
# Type: cell-based
# Settings: pc-12, 24 h
row,Structure (SMILES),Activity
1,COc1cc(CC(C(C)=O)C(=O)NCCCCCCNc2c3c(nc4ccccc24)CCCC3)ccc1O (stereo not drawn),Non-Toxic

# Test system: PC-12
# Test: Neuroprotective activity against Abeta42-induced toxicity in rat PC12 cells assessed as increase in cell viability after 24 hrs by MTT assay
# Type: functional, cell-based
# Settings: not given
row,Structure (SMILES),Activity
1,COc1cc(CC(C(C)=O)C(=O)NCCCCCCNc2c3c(nc4ccccc24)CCCC3)ccc1O (stereo not drawn),Dose-dependent effect

# Test system: PC-12
# Test: Neuroprotective activity against H202-induced toxicity in rat PC12 cells assessed as increase in cell viability at 0.1 to 10 uM after 24 hrs by MTT assay
# Type: functional, cell-based
# Settings: not given
row,Structure (SMILES),Activity
1,COc1cc(/C=C/C(=O)CC(=O)/C=C/c2ccc(O)c(OC)c2)ccc1O,Active

# Test system: not listed separately
# Test: Metal chelating activity assessed as compound-Cu2+ complex formation at 25 uM after 30 mins by UV spectrophotometric analysis
# Type: functional
# Settings: not given
row,Structure (SMILES),Activity
1,COc1cc(CC(C(C)=O)C(=O)NCCCCCCNc2c3c(nc4ccccc24)CCCC3)ccc1O (stereo not drawn),Active
2,COc1cc(/C=C(\C(C)=O)C(=O)NCCCCCCNc2c3c(nc4ccccc24)CCCC3)ccc1O,Active
3,CC(=O)CC(=O)NCCCCNc1c2c(nc3ccccc13)CCCC2,Active

# Target: Acetylcholinesterase (Torpedo californica, UniProt P04058)
# Settings: not given
# Acetylcholinesterase, sequence (P04058 whole entry): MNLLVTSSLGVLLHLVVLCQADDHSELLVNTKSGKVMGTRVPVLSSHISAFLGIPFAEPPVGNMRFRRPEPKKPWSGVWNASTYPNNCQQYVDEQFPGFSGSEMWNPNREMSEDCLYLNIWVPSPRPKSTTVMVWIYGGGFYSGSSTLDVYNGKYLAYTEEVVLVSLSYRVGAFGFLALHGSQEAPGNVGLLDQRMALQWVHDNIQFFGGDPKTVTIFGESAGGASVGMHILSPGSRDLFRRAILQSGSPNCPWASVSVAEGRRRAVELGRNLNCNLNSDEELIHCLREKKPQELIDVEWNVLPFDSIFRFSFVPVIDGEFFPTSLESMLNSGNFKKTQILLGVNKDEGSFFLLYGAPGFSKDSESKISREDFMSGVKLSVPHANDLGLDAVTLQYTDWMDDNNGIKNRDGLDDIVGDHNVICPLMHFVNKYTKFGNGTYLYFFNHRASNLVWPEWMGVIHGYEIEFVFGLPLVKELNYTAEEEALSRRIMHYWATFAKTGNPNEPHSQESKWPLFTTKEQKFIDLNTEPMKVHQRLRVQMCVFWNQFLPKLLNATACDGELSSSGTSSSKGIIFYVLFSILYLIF
row,Structure (SMILES),IC50 [nM]
1,COc1cc(CC(C(C)=O)C(=O)NCCCCNc2c3c(nc4ccccc24)CCCC3)ccc1O (stereo not drawn),3680
2,CC(=O)C(Cc1ccc(O)cc1)C(=O)NCCCCCCNc1c2c(nc3ccccc13)CCCC2 (stereo not drawn),130
3,CC(=O)/C(=C\c1ccc(O)cc1)C(=O)NCCCCNc1c2c(nc3ccccc13)CCCC2,3800
4,CC(=O)CC(=O)NCCCCCCNc1c2c(nc3ccccc13)CCCC2,570
5,COc1cc(/C=C(\C(C)=O)C(=O)NCCCCNc2c3c(nc4ccccc24)CCCC3)ccc1O,2100
6,COc1cc(/C=C(\C(C)=O)C(=O)NCCCNc2c3c(nc4ccccc24)CCCC3)ccc1O,1260
7,CC(=O)C(Cc1ccc(O)cc1)C(=O)NCCCNc1c2c(nc3ccccc13)CCCC2 (stereo not drawn),8760
8,CC(=O)C(Cc1ccc(O)cc1)C(=O)NCCCCNc1c2c(nc3ccccc13)CCCC2 (stereo not drawn),1990
9,COc1cc(CC(C(C)=O)C(=O)NCCCCCCNc2c3c(nc4ccccc24)CCCC3)ccc1O (stereo not drawn),80
10,COc1cc(/C=C(\C(C)=O)C(=O)NCCCCCCNc2c3c(nc4ccccc24)CCCC3)ccc1O,290
11,CC(=O)/C(=C\c1ccc(O)cc1)C(=O)NCCCNc1c2c(nc3ccccc13)CCCC2,9640
12,CC(=O)/C(=C\c1ccc(O)cc1)C(=O)NCCCCCCNc1c2c(nc3ccccc13)CCCC2,2950
13,CC(=O)CC(=O)NCCNc1c2c(nc3ccccc13)CCCC2,460
14,CC(=O)CC(=O)NCCCNc1c2c(nc3ccccc13)CCCC2,240
15,COc1cc(CC(C(C)=O)C(=O)NCCCNc2c3c(nc4ccccc24)CCCC3)ccc1O (stereo not drawn),5710
16,CC(=O)CC(=O)NCCCCNc1c2c(nc3ccccc13)CCCC2,90

# Test system: PC-12
# Test: Neuroprotective activity against Abeta42-induced toxicity in rat PC12 cells assessed as increase in cell viability at 0.1 to 10 uM after 24 hrs by MTT assay
# Type: functional, cell-based
# Settings: not given
row,Structure (SMILES),Activity
1,COc1cc(/C=C/C(=O)CC(=O)/C=C/c2ccc(O)c(OC)c2)ccc1O,Active

# Test system: PC-12
# Test: Neuroprotective activity against H202-induced toxicity in rat PC12 cells assessed as increase in cell viability after 24 hrs by MTT assay
# Type: functional, cell-based
# Settings: not given
row,Structure (SMILES),Activity
1,COc1cc(CC(C(C)=O)C(=O)NCCCCCCNc2c3c(nc4ccccc24)CCCC3)ccc1O (stereo not drawn),Dose-dependent effect

# Target: Cholinesterase (Equus caballus, UniProt P81908)
# Settings: not given
# Cholinesterase, sequence (P81908 whole entry): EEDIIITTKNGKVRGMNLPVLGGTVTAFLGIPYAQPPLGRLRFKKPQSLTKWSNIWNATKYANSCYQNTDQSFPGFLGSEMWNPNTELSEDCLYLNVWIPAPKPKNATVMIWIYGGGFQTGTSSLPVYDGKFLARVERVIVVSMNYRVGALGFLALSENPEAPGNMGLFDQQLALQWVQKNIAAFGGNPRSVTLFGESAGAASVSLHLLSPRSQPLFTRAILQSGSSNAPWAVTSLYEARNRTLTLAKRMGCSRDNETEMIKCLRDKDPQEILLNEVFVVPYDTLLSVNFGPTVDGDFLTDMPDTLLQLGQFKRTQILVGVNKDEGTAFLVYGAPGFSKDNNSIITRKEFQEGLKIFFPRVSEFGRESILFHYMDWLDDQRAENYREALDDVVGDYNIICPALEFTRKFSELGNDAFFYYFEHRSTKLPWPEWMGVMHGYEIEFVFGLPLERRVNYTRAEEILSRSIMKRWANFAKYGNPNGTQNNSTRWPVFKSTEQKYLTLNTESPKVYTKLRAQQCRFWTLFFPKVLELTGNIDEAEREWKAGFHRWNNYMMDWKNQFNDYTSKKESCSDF
row,Structure (SMILES),IC50 [nM]
1,COc1cc(CC(C(C)=O)C(=O)NCCCCNc2c3c(nc4ccccc24)CCCC3)ccc1O (stereo not drawn),3380
2,CC(=O)C(Cc1ccc(O)cc1)C(=O)NCCCCCCNc1c2c(nc3ccccc13)CCCC2 (stereo not drawn),200
3,CC(=O)/C(=C\c1ccc(O)cc1)C(=O)NCCCCNc1c2c(nc3ccccc13)CCCC2,4770
4,CC(=O)CC(=O)NCCCCCCNc1c2c(nc3ccccc13)CCCC2,220
5,COc1cc(/C=C(\C(C)=O)C(=O)NCCCCNc2c3c(nc4ccccc24)CCCC3)ccc1O,2110
6,COc1cc(/C=C(\C(C)=O)C(=O)NCCCNc2c3c(nc4ccccc24)CCCC3)ccc1O,1870
7,CC(=O)C(Cc1ccc(O)cc1)C(=O)NCCCNc1c2c(nc3ccccc13)CCCC2 (stereo not drawn),830
8,CC(=O)C(Cc1ccc(O)cc1)C(=O)NCCCCNc1c2c(nc3ccccc13)CCCC2 (stereo not drawn),390
9,COc1cc(CC(C(C)=O)C(=O)NCCCCCCNc2c3c(nc4ccccc24)CCCC3)ccc1O (stereo not drawn),220
10,COc1cc(/C=C(\C(C)=O)C(=O)NCCCCCCNc2c3c(nc4ccccc24)CCCC3)ccc1O,1500
11,CC(=O)/C(=C\c1ccc(O)cc1)C(=O)NCCCNc1c2c(nc3ccccc13)CCCC2,1600
12,CC(=O)/C(=C\c1ccc(O)cc1)C(=O)NCCCCCCNc1c2c(nc3ccccc13)CCCC2,2240
13,CC(=O)CC(=O)NCCNc1c2c(nc3ccccc13)CCCC2,310
14,CC(=O)CC(=O)NCCCNc1c2c(nc3ccccc13)CCCC2,60
15,COc1cc(CC(C(C)=O)C(=O)NCCCNc2c3c(nc4ccccc24)CCCC3)ccc1O (stereo not drawn),1310
16,CC(=O)CC(=O)NCCCCNc1c2c(nc3ccccc13)CCCC2,160
